Data: patent US5034392A, “4-(3-(4-oxothiazolidinyl)butynylamines” (Hoechst-Roussel Pharmaceuticals Incorporated, priority 1990, dated 1991)
Counter-ions that a name gives are not always drawn.

Columns and labels:
[1] = phenyl-para-quinone writhing assay in mice (analgesia); assay type: in vivo
Description: The compounds of the present invention are useful as analgesic agents due to their ability to alleviate pain in mammals. […] Exptl. Biol. Med., 95, 729 (1957)]. The analgesic activity of some of the compounds of the invention expressed in terms of percent inhibition of writhing is given in Table 1.

[2] = antihypertensive activity in the spontaneous hypertensive rat by the indirect tail cuff method; assay type: in vivo; conditions: at 50 mg/kg p.o, treated orally for three days, drop measured on the third day
Procedure: Antihypertensive activity is measured in the spontaneous hypertensive rat by the indirect tail cuff method. […] In this procedure a group of five animals is treated orally for three days with the test compound in relation to a control group of the same number. The drop in blood pressure is measured on the third day following administration.

Structure (SMILES) | % Inhibition of Writhing ([1]; at 20 mg/kg s.c.) | mm Hg decrease (decrease in mean arterial blood pressure) [2] | other results
CC1SCC(=O)N1CC#CCN1CCC(O)(c2ccccc2)CC1.O=C(O)C(=O)O (stereo not shown) [2-Methyl-3-(4-(4-hydroxy-4-phenylpiperidino)-2-butynyl)-4-oxothiazolidine oxalate] | 51% | – | –
O=C1CSC2(CCCC2)N1CC#CCN1CCN(C(c2ccccc2)c2ccc(Cl)cc2)CC1 (stereo not shown) [4-(4-(1-(4-Chlorobenzhydryl)piperazino)-2-butynyl)-1-thia-4-azaspiro[4.4]nonane-3-one trisoxalate] | 30% | – | –
O=C(O)/C=C\C(=O)O.O=C(O)/C=C\C(=O)O.O=C1CSCN1CC#CCN1CCN(C(c2ccccc2)c2ccc(Cl)cc2)CC1 (stereo not shown) [3-(4-(1-(4-Chlorobenzhydryl)piperazino)-2-butynyl)-4-oxothiazolidine bis maleate] | – | 28 mm Hg | –
O=C1CSCN1CC#CCN1CCN(c2ccc(F)cc2)CC1 [3-(4-(1-(4-Fluorophenyl)piperazino)-2-butynyl-4-oxothiazolidine oxalate] | – | 71 mm Hg | –
CC(C)=CCN1CCC2(C)c3cc(O)ccc3CC1C2C (stereo not shown) [pentazocine, reference compound] | – | – | % Inhibition of Writhing ([1]; standard, at 1.3 mg/kg s.c.): 50%
O=C1CSCN1CC#CCN1CCN(c2ccncc2)CC1 [3-(4-(4-Pyridyl)piperazino)-2-butynyl)-4-oxothiazolidine sesquioxalate] | – | 30 mm Hg | –
O=C1CSCN1CC#CCN1CCC(c2noc3cc(Cl)ccc23)CC1 [3-(4-[3-(4-piperidyl)-6-chloro-benzisoxazole]-2-butynyl)-4-oxothiazolidine oxalate] | 39% | – | –
COc1ccccc1N1CCN(CC#CCN2CSCC2=O)CC1 [3-[4-(1-(2-Methoxyphenyl)piperazino)-2-butynyl]-4-oxothiazolidine sesquioxalate] | – | 51 mm Hg | –
N=C(N)NCCN1CCCCCCC1 [guanethidine, reference compound] | – | 20 mm Hg | –
CC(C)Cc1ccc(C(C)C(=O)O)cc1 (stereo not shown) [ibuprofen, reference compound] | – | – | % Inhibition of Writhing ([1]; standard, at 10.4 mg/kg s.c.): 50%
